The text below walks through data of ChEMBL document CHEMBL1201862, “PubChem BioAssay data set” (2004).

Molecules are shown by their SMILES.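 Exposure lasted 48 hours, with cells grown in 96-well plates and compounds tested at five concentrations. GI50 = concentration required for 50% inhibition of growth.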 Activity calls are given as the source filed them. Cut-off read from the data, not from the text of the source: active = GI50 up to about 1.1 µM and inactive = higher.

Common to all, as to assay: NCI tumour cell line growth inhibition, 48 h
For test [1], the system named is 786-0.
In test [2] the test system is U-251.
In test [3] the test system is SK-MEL-5.
Test [4] has as its system CAKI-1.
Test [5] concerns COLO 205.
Test [6] has as its system SK-MEL-28.
Test [7] deals with UACC-257.
Test [8] has as its system HCT-15.
Test [9] concerns SK-OV-3.
In test [10] the test system is TK-10.
The test system of test [11] is HCT-116.
The subject of test [12] is A549.
Test [13] has as its system NCI-H226.
In test [14] the test system is SF-295.
Test [15] has as its system MOLT-4.
For test [16], the system named is OVCAR-5.
The test system of test [17] is A498.

As for `CCOP(=O)(OCC)C1=NC=CC=CC1n1c(-c2ccccc2)nn(CC)c1=O` (centres undefined), the GI50 in [1], in [2], in test [3], in test [4], in [5] and in test [6] was > 100 µM (inactive) each time. For the same molecule, the GI50 in test [7] is > 100 µM (inactive); in test [8], over 100 µM; in test [9], > 100 µM (inactive); in test [10], > 100 µM (inactive); in test [11], > 100 µM (inactive); in test [12], > 100 µM (inactive). Moreover, the GI50 in [13], in [14] and in test [15] was > 100 µM (inactive) throughout.
Take `CC1C[C@]2(C[C@@H](C)C(=O)O2)O[C@@H]2CC3(C)[C@@H]4CCC5C(C)(C)OC(=O)C[C@H]6OO[C@]4(CC[C@]3(C)C12)CC56O` (some centres undefined): the GI50 is > 100 µM (inactive) in test [1]; > 100 µM (inactive) in [2]; > 100 µM (inactive) in test [3]; > 100 µM (inactive) in test [6]; > 100 µM (inactive) in [7]; over 100 µM in test [8]. The GI50 in test [9], in [10], in test [12], in test [13], in test [14] and in test [16] was > 100 µM (inactive) in each case.
In the case of `COC(=O)C(=Cc1cc(OC)c(OC)c(OC)c1-c1cc2c(cc1C1(C)OCCS1)OCO2)C(=O)OC` (centres undefined), the GI50 in [1] is 38.8 µM (inactive); in test [2] it was 45.5 µM (inactive); in [3] it was 26.4 µM (inactive); in [4], 19.3 µM (inactive); in test [5] it was 40 µM (inactive); in [6], 33.4 µM (inactive). Further, the GI50 in test [7] was 31.4 µM (inactive); in test [8], 24.7 µM; in test [9], 38.3 µM (inactive); in test [10], 86.9 µM (inactive); in test [11], 24.6 µM (inactive); in test [12] it was 29.1 µM (inactive). Moreover, the GI50 in test [13] is 32.2 µM (inactive); in test [14] it was 31.6 µM (inactive); in test [16] it was > 100 µM (inactive); in test [15], 24 µM (inactive).
In the case of `Cn1cc(C(=O)c2ccccc2)cc(C(=O)c2ccccc2)c1=O`, the GI50 in [1], in test [2], in test [3], in [4], in [5] and in test [6] was > 100 µM (inactive) throughout. In addition, the GI50 is > 100 µM (inactive) in test [7]; over 100 µM in test [8]; > 100 µM (inactive) in test [9]; > 100 µM (inactive) in [10]; > 100 µM (inactive) in test [12]; > 100 µM (inactive) in test [13]. For the same molecule, the GI50 in test [14], in test [16] and in test [15] was > 100 µM (inactive) each time.
As for `CC1(C)Oc2ccccc2[N+]([O-])=C1c1ccccc1`, the GI50 in test [1], in test [2], in test [3], in test [4], in test [5] and in test [6] was > 100 µM (inactive) throughout. Further, the GI50 in test [17] was > 100 µM (inactive); in [7] it was > 100 µM (inactive); in test [8] it was over 100 µM; in test [9], > 100 µM (inactive); in test [11] it was > 100 µM (inactive); in test [12], > 100 µM (inactive). Moreover, the GI50 in [14] and in test [15] was > 100 µM (inactive) in each case.
In the case of `COc1ccc(/C=C2\C(=O)N(C(=O)Cc3ccccc3)N=C2C)cc1OC`, the GI50 is > 100 µM (inactive) in test [1]; > 100 µM (inactive) in [4]; > 100 µM (inactive) in test [5]; > 100 µM (inactive) in test [6]; > 100 µM (inactive) in [7]; over 100 µM in test [8]. The GI50 in test [10], in [11], in test [12], in test [13], in [14] and in test [16] was > 100 µM (inactive) in each case. The GI50 in [15] is > 100 µM (inactive).
Turning to `O=C1NC2(O)c3ccccc3C(=O)C2(O)N1c1ccccc1` (centres undefined), the GI50 in test [1], in test [2], in [4], in test [5], in [6] and in test [7] was > 100 µM (inactive) each time. Also, the GI50 in test [8] is over 100 µM; in test [9] it was > 100 µM (inactive); in [10], > 100 µM (inactive); in [11], > 100 µM (inactive); in test [12], > 100 µM (inactive); in test [14] it was > 100 µM (inactive). Further, the GI50 in [16] and in test [15] was > 100 µM (inactive) in each case.
For `Cc1cccc2c1Sc1ccccc1C2NC(=O)CCN(C)C` (centres undefined), the GI50 in [1] was > 10 µM (inactive); in [2], > 100 µM (inactive); in test [3] it was > 100 µM (inactive); in test [5], > 100 µM (inactive); in test [6], > 100 µM (inactive); in [7], > 100 µM (inactive). For the same molecule, the GI50 was over 100 µM in test [8]; > 100 µM (inactive) in [9]; > 100 µM (inactive) in test [10]; > 100 µM (inactive) in test [11]; > 100 µM (inactive) in [12]; > 100 µM (inactive) in test [13]. Further, the GI50 in test [16] and in test [15] was > 100 µM (inactive) each time.
On to `CC(C1=CC=C2[C@@H]3CCC4CC(N(C)C)CC[C@]4(C)C3CC[C@]12C)N(C)C=O` (some centres undefined), for which the GI50 in test [1], in test [2], in test [3], in test [4], in [5] and in [6] was > 100 µM (inactive) throughout. The GI50 is 6.49 µM (inactive) in [17]; over 100 µM in [8]; > 100 µM (inactive) in test [9]; > 100 µM (inactive) in [10]; > 100 µM (inactive) in test [11]; > 100 µM (inactive) in test [12]. The GI50 in [14], in test [16] and in test [15] was > 100 µM (inactive) each time.
For `CCC12CCCN(Cc3ccccc3)C1c1c(n(C)c3ccccc13)[C@H](C(=O)OC)C2` (some centres undefined), the GI50 in test [1] is > 239 µM (inactive); in test [2], > 239 µM (inactive); in test [3], 142 µM (inactive); in test [4], 173 µM (inactive); in test [5], 112 µM (inactive); in test [6], > 239 µM (inactive). Moreover, the GI50 was 110 µM (inactive) in test [7]; 85.7 µM in test [8]; > 239 µM (inactive) in test [9]; > 239 µM (inactive) in test [10]; 146 µM (inactive) in [11]; > 239 µM (inactive) in test [12]. For the same molecule, the GI50 in [13] was > 239 µM (inactive); in test [14], > 239 µM (inactive); in [16] it was 147 µM (inactive); in test [15] it was > 239 µM (inactive).
